# From article PMC10619135, “Virtual screening, identification and in vitro validation of small molecule GDP-mannose dehydrogenase inhibitors” (RSC Chemical Biology, 2023)
# Columns and labels:
# [1] = biological target: T1, GDP-mannose dehydrogenase (GMD) (Pseudomonas aeruginosa, UniProt P11759); test: NADH fluorescence assay, dilution series; assay type: biochemical
# T1 construct: gene algD; recombinant GMD
# [2] = biological target: T1, GDP-mannose dehydrogenase (GMD); test: intact protein ESI-MS; assay type: binding; settings: covalent; overnight incubation; single adduct; site Lys324 only predicted by docking
# T1 sequence (P11759 whole entry): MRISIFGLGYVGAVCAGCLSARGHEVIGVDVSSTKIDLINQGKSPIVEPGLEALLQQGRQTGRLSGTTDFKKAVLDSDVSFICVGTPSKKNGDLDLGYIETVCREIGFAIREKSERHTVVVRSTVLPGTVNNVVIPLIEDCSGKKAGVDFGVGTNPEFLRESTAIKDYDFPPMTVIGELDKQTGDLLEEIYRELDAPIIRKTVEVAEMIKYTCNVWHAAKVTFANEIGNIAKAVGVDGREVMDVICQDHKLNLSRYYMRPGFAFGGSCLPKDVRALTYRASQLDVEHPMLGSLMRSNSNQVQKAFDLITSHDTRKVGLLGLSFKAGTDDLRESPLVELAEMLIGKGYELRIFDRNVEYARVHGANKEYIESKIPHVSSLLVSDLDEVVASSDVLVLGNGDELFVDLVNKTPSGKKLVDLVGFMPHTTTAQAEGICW
compound,measurement,setting,value
"CC(=O)C1=C(O)C=C2Oc3c4c(c(C)c(O)c3[C@@]2(C)C1=O)O/C(=C\c1ccc(O)cc1)C4=O [compound 13, 13]",IC50,[1],16.7 ± 2.12 µM
same,intact protein ESI-MS,[2],ESI-MS indicated clear evidence of a single GMD-13 adduct
